The text below walks through data of patent publication US20140005163A1 (NOVARTIS AG, priority 2010, published 2014).

One test addresses T1, PI3K alpha (Homo sapiens, UniProt P42336).
T1 construct: p85(iSH2) fusion partner (see partner chain) (N); His tag (C); made in house; host or cells: baculovirus; Tn5 (Trichoplusia ni) or TiniPro insect cells
The test is described as follows: PI3K alpha kinase assay (Kinase-Glo luminescence). Format: biochemical. In short, it runs like this:
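Compounds are titrated at 8 concentrations and mixed with PI3Kα protein (EMV B1075, 10 nM) in phosphatidylinositol (10 μg/mL). ATP at 1 μM starts the 60-minute room-temperature reaction, which is stopped with Kinase-Glo before luminescence reading. Four-parameter curve fitting gives IC50.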
In general terms: Kinase-Glo measures the ATP left after a reaction by luminescence.

The next test concerns the target T2, mTOR (Homo sapiens, UniProt P42345).
T2 construct: purchased Invitrogen Corporation (Carlsbad/CA, USA) PV4753
The test is described as follows: Biochemical assay for m-TOR by TR-FRET. The settings on record: 8 μM ATP, 400 nM GFP-4EBP1, 0.5 nM mTOR. In short, it runs like this: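 TR-FRET detection of pThr46 on GFP-4EBP1 (400 nM final) using Tb3+-labelled antibody (0.5 nM), added with EDTA to stop reactions. Reactions ran at rt with 0.5 nM mTOR and 8 μM ATP (final) in HEPES pH 7.5 buffer containing 10 mM MnCl2.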

Test [1] concerns S6 Ribosomal Protein phosphorylation Ser235/236 in TSC1 null mouse embryo fibroblast (MEF) cells. Briefly: Reverse protein array assay, S6 Ribosomal Protein phosphorylation Ser235/236 in TSC1 null MEF cells. Format: cell-based. The following applies: 1 h, pS6 ribosomal protein Ser235/236, 60 minutes incubation, read-out: p-S6 IC50. In outline: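 TSC1−/− MEFs, seeded and held ≥20 h at 37 °C/5% CO2, were exposed to 8-step serial compound dilutions (0.02% DMSO final; DMSO vehicle control) for 60 min at 37 °C. Cells were then lysed on ice for 10 min and lysates spotted onto reverse protein array chips.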

T2 sequence (P42345 1360-2549 limits assumed): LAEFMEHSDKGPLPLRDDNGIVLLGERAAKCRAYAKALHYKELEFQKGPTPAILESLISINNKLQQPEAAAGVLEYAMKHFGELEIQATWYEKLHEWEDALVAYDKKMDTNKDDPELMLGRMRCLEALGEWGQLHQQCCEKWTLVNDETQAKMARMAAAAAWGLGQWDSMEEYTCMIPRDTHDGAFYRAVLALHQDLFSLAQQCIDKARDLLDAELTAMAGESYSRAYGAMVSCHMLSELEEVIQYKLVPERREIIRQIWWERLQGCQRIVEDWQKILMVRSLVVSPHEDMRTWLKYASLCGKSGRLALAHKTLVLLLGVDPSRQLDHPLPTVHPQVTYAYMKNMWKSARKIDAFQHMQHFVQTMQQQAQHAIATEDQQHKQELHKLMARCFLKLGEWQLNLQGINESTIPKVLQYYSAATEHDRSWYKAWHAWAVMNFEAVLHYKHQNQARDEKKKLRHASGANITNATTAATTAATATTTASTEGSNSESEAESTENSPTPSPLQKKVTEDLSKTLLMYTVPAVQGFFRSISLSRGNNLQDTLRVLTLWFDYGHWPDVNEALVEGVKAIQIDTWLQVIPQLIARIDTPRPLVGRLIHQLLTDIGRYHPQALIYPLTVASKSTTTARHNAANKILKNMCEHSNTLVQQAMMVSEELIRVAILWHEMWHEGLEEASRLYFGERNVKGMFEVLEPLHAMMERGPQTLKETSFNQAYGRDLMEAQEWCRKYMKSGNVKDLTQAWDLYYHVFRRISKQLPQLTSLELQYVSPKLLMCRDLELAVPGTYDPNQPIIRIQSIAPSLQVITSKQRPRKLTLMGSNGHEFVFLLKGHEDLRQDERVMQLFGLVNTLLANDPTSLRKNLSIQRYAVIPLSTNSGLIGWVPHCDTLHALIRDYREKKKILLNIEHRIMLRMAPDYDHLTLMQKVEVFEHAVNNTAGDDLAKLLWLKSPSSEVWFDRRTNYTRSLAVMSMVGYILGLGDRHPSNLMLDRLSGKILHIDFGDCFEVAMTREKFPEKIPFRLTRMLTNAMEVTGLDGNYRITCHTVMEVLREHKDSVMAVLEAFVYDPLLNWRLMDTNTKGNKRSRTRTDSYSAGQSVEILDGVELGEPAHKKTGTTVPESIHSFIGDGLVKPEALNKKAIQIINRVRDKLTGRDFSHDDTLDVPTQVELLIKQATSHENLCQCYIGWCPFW
T1 sequence (P42336 with tags, fused parts or gaps limits assumed): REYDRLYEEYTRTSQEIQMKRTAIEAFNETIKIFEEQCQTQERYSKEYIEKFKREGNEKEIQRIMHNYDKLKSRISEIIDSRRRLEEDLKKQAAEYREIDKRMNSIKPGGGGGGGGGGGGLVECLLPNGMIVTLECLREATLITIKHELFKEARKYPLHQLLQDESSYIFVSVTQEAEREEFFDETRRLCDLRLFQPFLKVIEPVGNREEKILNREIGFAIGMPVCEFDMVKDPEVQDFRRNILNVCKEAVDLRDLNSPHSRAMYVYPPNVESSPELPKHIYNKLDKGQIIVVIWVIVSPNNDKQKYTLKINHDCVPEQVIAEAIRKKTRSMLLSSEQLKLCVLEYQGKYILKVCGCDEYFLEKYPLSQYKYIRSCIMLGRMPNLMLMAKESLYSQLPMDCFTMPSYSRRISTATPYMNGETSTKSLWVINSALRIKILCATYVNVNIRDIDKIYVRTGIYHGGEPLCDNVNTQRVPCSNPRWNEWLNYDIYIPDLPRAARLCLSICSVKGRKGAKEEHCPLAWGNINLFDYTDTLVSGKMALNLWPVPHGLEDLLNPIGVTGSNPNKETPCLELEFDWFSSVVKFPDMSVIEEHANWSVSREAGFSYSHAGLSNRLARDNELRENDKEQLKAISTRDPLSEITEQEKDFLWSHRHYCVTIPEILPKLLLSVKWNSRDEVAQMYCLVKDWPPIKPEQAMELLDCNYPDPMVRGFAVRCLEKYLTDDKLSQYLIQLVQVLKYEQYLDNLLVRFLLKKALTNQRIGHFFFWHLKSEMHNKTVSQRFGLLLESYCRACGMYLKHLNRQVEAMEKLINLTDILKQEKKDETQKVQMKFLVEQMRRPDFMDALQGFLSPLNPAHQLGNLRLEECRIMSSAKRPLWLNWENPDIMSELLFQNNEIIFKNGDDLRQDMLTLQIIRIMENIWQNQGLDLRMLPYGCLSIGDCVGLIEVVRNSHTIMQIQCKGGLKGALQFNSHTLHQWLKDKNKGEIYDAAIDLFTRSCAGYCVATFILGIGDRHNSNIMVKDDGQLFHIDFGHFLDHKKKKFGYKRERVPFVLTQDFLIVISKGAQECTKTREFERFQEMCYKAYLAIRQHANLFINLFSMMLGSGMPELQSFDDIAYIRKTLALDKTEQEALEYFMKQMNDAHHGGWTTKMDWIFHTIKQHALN

Consider `Cc1nn(CCO)cc1-n1c(=O)n(C)c2cnc3ccc(-c4cncc(N5CCOCC5)c4)cc3c21` [Example 175.3, 1-[1-(2-Hydroxy-ethyl)-3-methyl-1H-pyrazol-4-yl]-3-methyl-8-(5-morpholin-4-yl-pyridin-3-yl)-1,3-dihydro-imidazo[4,5-c]quinolin-2-one], for which the IC50 came out at 0.044 µM on PI3K alpha, 0.019 µM on mTOR and 0.151 µM in test [1].
For `CCOc1cc(-c2ccc3ncc4c(c3c2)n(-c2cn(C)nc2C)c(=O)n4C)cnc1COC` [Example 197.1, 1-(1,3-Dimethyl-1H-pyrazol-4-yl)-8-(5-ethoxy-6-methoxymethyl-pyridin-3-yl)-3-methyl-1,3-dihydro-imidazo[4,5-c]quinolin-2-one], the IC50 was 0.034 µM at PI3K alpha, 0.039 µM on mTOR and 0.007 µM in test [1].
The matching figures for `CCn1cc(-n2c(=O)n(C)c3cnc4ccc(-c5cnc(NC)c(Cl)c5)cc4c32)c(C)n1` [Example 146.2, 8-(5-Chloro-6-methylamino-pyridin-3-yl)-1-(1-ethyl-3-methyl-1H-pyrazol-4-yl)-3-methyl-1,3-dihydro-imidazo[4,5-c]quinolin-2-one]: 0.119 µM, 0.02 µM and 0.002 µM.
As to `CNC(=O)c1ccc(-c2ccc3ncc4c(c3c2)n(-c2cn(C)nc2C)c(=O)n4C)cc1` [Example 43.1, 4-[1-(1,3-Dimethyl-1H-pyrazol-4-yl)-3-methyl-2-oxo-2,3-dihydro-1H-imidazo[4,5-c]quinolin-8-yl]-N-methyl-benzamide], the IC50 at PI3K alpha is 0.01 µM; on mTOR it was under 0.003 µM; in test [1], 0.003 µM.
For `CCOc1ccc(-c2ccc3ncc4c(c3c2)n(-c2cn(CC(=O)N3CCOCC3)nc2C)c(=O)n4C)cn1` [Example 3.10, 8-(6-Ethoxy-pyridin-3-yl)-3-methyl-1-[3-methyl-1-(2-morpholin-4-yl-2-oxo-ethyl)-1H-pyrazol-4-yl]-1,3-dihydro-imidazo[4,5-c]quinolin-2-one], the IC50 was found to be 0.091 µM at PI3K alpha, 0.018 µM at mTOR and 0.01 µM in test [1].
As to `CCNc1cc(-c2ccc3ncc4c(c3c2)n(-c2c(C)nn(C)c2C)c(=O)n4C)cnc1Cl` [Example 153.1, 8-(6-Chloro-5-ethylamino-pyridin-3-yl)-3-methyl-1-(1,3,5-trimethyl-1H-pyrazol-4-yl)-1,3-dihydro-imidazo[4,5-c]quinolin-2-one], the IC50 on PI3K alpha is 0.01 µM; on mTOR it was 0.098 µM; in test [1], 0.004 µM.
As to `COCc1cncc(-c2ccc3ncc4c(c3c2)n(-c2cn(C)nc2Cl)c(=O)n4C)c1` [Example 54.2, 1-(3-Chloro-1-methyl-1H-pyrazol-4-yl)-8-(5-methoxymethyl-pyridin-3-yl)-3-methyl-1,3-dihydro-imidazo[4,5-c]quinolin-2-one], the IC50 turned out to be 0.03 µM on PI3K alpha, 0.094 µM on mTOR and 0.001 µM in test [1].
On to `CCNc1cc(-c2ccc3ncc4c(c3c2)n(-c2cn(C)nc2C)c(=O)n4C)cnc1CC` [Example 161, 1-(1,3-Dimethyl-1H-pyrazol-4-yl)-8-(6-ethyl-5-ethylamino-pyridin-3-yl)-3-methyl-1,3-dihydro-imidazo[4,5-c]quinolin-2-one], for which the IC50 at PI3K alpha is 0.009 µM; at mTOR, under 0.003 µM; in test [1], 0.002 µM.
In the case of `Cc1cc(-n2c(=O)n(C)c3cnc4ccc(-c5ccc(C(F)(F)F)nc5)cc4c32)n(C)n1` [Example 8.2, 1-(2,5-Dimethyl-2H-pyrazol-3-yl)-3-methyl-8-(6-trifluoromethyl-pyridin-3-yl)-1,3-dihydro-imidazo[4,5-c]quinolin-2-one], the IC50 turned out to be 0.095 µM on PI3K alpha and 0.677 µM at mTOR.
With `COCCOc1cc(-c2ccc3ncc4c(c3c2)n(-c2cn(C)nc2C)c(=O)n4C)cnc1CO` [Example 244, 1-(1,3-Dimethyl-1H-pyrazol-4-yl)-8-[6-hydroxymethyl-5-(2-methoxy-ethoxy)-pyridin-3-yl]-3-methyl-1,3-dihydro-imidazo[4,5-c]quinolin-2-one], the IC50 on PI3K alpha is 0.03 µM; on mTOR, 0.079 µM; in test [1], 0.025 µM.
For `CCNc1cc(-c2ccc3ncc4c(c3c2)n(-c2cn(C(C)C)nc2C)c(=O)n4C)cnc1CO` [Example 155.3, 8-(5-Ethylamino-6-hydroxymethyl-pyridin-3-yl)-1-(1-isopropyl-3-methyl-1H-pyrazol-4-yl)-3-methyl-1,3-dihydro-imidazo[4,5-c]quinolin-2-one], the IC50 was found to be 0.03 µM on PI3K alpha, 0.005 µM on mTOR and 0.001 µM in test [1].
With `CNc1cc(-c2ccc3ncc4c(c3c2)n(-c2cn(C)nc2C)c(=O)n4C)cnc1COC` [Example 159, 1-(1,3-Dimethyl-1H-pyrazol-4-yl)-8-(6-methoxymethyl-5-methylamino-pyridin-3-yl)-3-methyl-1,3-dihydro-imidazo[4,5-c]quinolin-2-one], the results for the IC50 (at PI3K alpha; at mTOR; in test [1]) were 0.034 µM, 0.012 µM and 0.008 µM, respectively.
As to `Cc1nn(C(C)C)cc1-n1c(=O)n(C)c2cnc3ccc(-c4cncc(C(C)(C)O)c4)cc3c21` [Example 215.1, 8-[5-(1-Hydroxy-1-methyl-ethyl)-pyridin-3-yl]-1-(1-isopropyl-3-methyl-1H-pyrazol-4-yl)-3-methyl-1,3-dihydro-imidazo[4,5-c]quinolin-2-one], the IC50 turned out to be 0.012 µM on PI3K alpha, 0.035 µM on mTOR and 0.039 µM in test [1].
Consider `COc1ccc(-c2ccc3ncc4c(c3n2)n(-c2cc(C)nn2C)c(=O)n4C)cc1OC` [Example 253, 8-(3,4-Dimethoxy-phenyl)-1-(2,5-dimethyl-2H-pyrazol-3-yl)-3-methyl-1,3-dihydro-1,3,5,9-tetraaza-cyclopenta[a]naphthalen-2-one], for which the IC50 on PI3K alpha was 0.004 µM; at mTOR, 0.003 µM; in test [1] it was under 0.005 µM.
As to `COc1ncc(-c2ccc3ncc4c(c3c2)n(-c2cn(C)nc2Cl)c(=O)n4C)cn1` [Example 17.3, 1-(3-Chloro-1-methyl-1H-pyrazol-4-yl)-8-(2-methoxy-pyrimidin-5-yl)-3-methyl-1,3-dihydro-imidazo[4,5-c]quinolin-2-one], the IC50 at PI3K alpha was 0.009 µM; on mTOR, 0.012 µM; in test [1], 0.003 µM.
For `CCn1c(=O)n(-c2cn(C)nc2C)c2c3nc(-c4ccc(OC)c(OC)c4)ccc3ncc21` [Example 251, 8-(3,4-Dimethoxy-phenyl)-1-(1,3-dimethyl-1H-pyrazol-4-yl)-3-ethyl-1,3-dihydro-1,3,5,9-tetraaza-cyclopenta[a]naphthalen-2-one] the same measures were 0.028 µM, 0.105 µM and 0.033 µM.
`Cc1nn(C)c(C)c1-n1c(=O)n(C)c2cnc3ccc(-c4ccc(N(C)C)nc4)cc3c21` [Example 4.3, 8-(6-Dimethylamino-pyridin-3-yl)-3-methyl-1-(1,3,5-trimethyl-1H-pyrazol-4-yl)-1,3-dihydro-imidazo[4,5-c]quinolin-2-one]: the IC50 at PI3K alpha was 0.099 µM; on mTOR, 0.543 µM.
Regarding `CCOc1ccc(-c2ccc3ncc4c(c3c2)n(-c2c(C)nn(C)c2C)c(=O)n4C)cc1OC` [Example 29.2, 8-(4-Ethoxy-3-methoxy-phenyl)-3-methyl-1-(1,3,5-trimethyl-1H-pyrazol-4-yl)-1,3-dihydro-midazo[4,5-c]quinolin-2-one], the IC50 on PI3K alpha is 0.038 µM; at mTOR, 0.778 µM.
In the case of `COCCn1c(=O)n(C)c2ncc(-c3ccc4ncc5c(c4c3)n(-c3cn(C)nc3C)c(=O)n5C)cc21` [Example 69, 1-(1,3-Dimethyl-1H-pyrazol-4-yl)-8-[1-(2-methoxy-ethyl)-3-methyl-2-oxo-2,3-dihydro-1H-imidazo[4,5-b]pyridin-6-yl]-3-methyl-1,3-dihydro-imidazo[4,5-c]quinolin-2-one], the figures for the IC50 on PI3K alpha and on mTOR were 0.039 µM and 0.639 µM, respectively.
Take `Cc1nn(C)c(C)c1-n1c(=O)n(C)c2cnc3ccc(-c4cccc(O)c4)cc3c21` [Example 32.2, 8-(3-Hydroxy-phenyl)-3-methyl-1-(1,3,5-trimethyl-1H-pyrazol-4-yl)-1,3-dihydro-imidazo[4,5-c]quinolin-2-one]: the IC50 at PI3K alpha came out at 0.03 µM; in test [1] it was 0.558 µM.
As for `CCc1ncc(-c2ccc3ncc4c(c3c2)n(-c2cn(C)nc2C)c(=O)n4C)cc1NC(C)C` [Example 162, 1-(1,3-Dimethyl-1H-pyrazol-4-yl)-8-(6-ethyl-5-isopropylamino-pyridin-3-yl)-3-methyl-1,3-dihydro-imidazo[4,5-c]quinolin-2-one], the IC50 is 0.008 µM on PI3K alpha and 0.003 µM on mTOR.
As for `COc1ccc(-c2ccc3ncc4c(c3c2)n(-c2c(C)nn(C)c2C)c(=O)n4C)cn1` [Example 2.4, 8-(6-Methoxy-pyridin-3-yl)-3-methyl-1-(1,3,5-trimethyl-1H-pyrazol-4-yl)-1,3-dihydro-imidazo[4,5-c]quinolin-2-one], the results for the IC50 on PI3K alpha and at mTOR were 0.065 µM and 0.448 µM, respectively.

A word on the IC50: it is the concentration that gives 50% inhibition.
